This is an account of results in patent US10596166B2, “Combination composition comprising huperzine” (priority 2015, dated 2020).

The subject of this experiment is primary cortical neurons injured by glutamate. The experiment is described as follows: glutamate toxicity on primary cortical neurons (neuron survival, neurite network). The experiment is classed as cell-based, rat. As to conditions: for effect on glutamate toxicity: at the lowest concentrations; for non-active concentration: see example 2. The method, then: Rat cortical neurons were cultured as described by Singer et al., 1999 [J. Neuroscience 19(7), 2455-2463] and Callizot et al. 2013 [J. Neurosc. Res. 91(5), 706-716].
Briefly, pregnant females (Wistar; JanvierLabs, St Berthevin, France) at 15 days of gestation were killed by cervical dislocation. Foetuses were collected and immediately placed in ice-cold L15 Leibovitz medium (Pan Biotech, Aidenbach, Germany, Batch: 4120413) with a 2% penicillin (10,000 U/ml) and streptomycin (10 mg/ml) solution (PS; Pan Biotech, Aidenbach, Germany) and 1% bovine serum albumin (BSA; Pan Biotech, Aidenbach, Germany). Cortex was treated for 20 min at 37° C. with a trypsin-EDTA (Pan Biotech, Aidenbach, Germany) solution at a final concentration of 0.05% trypsin and 0.02% EDTA. The dissociation was stopped by addition of Dulbecco's modified Eagle's medium (DMEM) with 4.5 g/liter of glucose (Pan Biotech, Aidenbach, Germany), containing DNAse I grade II (final concentration 0.5 mg/ml; Pan Biotech, Germany) and 10% fetal calf serum (FCS; Invitrogen, Cergy Pointoise, France). Cells were mechanically dissociated by three forced passages through the tip of a 10-ml pipette. Cells were then centrifuged at 515 g for 10 min at 4° C. The supernatant was discarded, and the pellet was resuspended in a defined culture medium consisting of Neurobasal medium (Invitrogen, Cergy Pointoise, France) with a 2% solution of B27 supplement (Invitrogen, Cergy Pointoise, France), 2 mmol/liter of L-glutamine (Pan Biotech, Aidenbach, Germany), 2% of PS solution, and 10 ng/ml of brain-derived neurotrophic factor (BDNF; Pan Biotech, Aidenbach, Germany). Viable cells were counted in a Neubauer cytometer, using the trypan blue exclusion test. The cells were seeded at a density of 30,000 per well in 96-well plates precoated with poly-L-lysine (Corning Biocoat, Tewksbury, USA) and were cultured at 37° C. in an air (95%)-CO2 (5%) incubator. The medium was changed every 2 days.
On day 13, the cultures were exposed for 20 minutes to glutamate 40 μM in the absence or presence of Huperzia serrata extracts. Then the cells were washed out and new fresh medium containing or not Huperzia serrata extracts was added for another 48 hours.
The cells were then fixed by a cold solution ethanol/acetic acid (95:5 v/v) for 5 minutes at −20° C. After permeabilization with 0.1% of saponin (Sigma), cells were incubated for 2 hours with mouse monoclonal antibody against microtubule-associated-protein 2 (MAP 2; Sigma) at dilution of 1/400 in PBS containing 1% foetal calf serum (Invitrogen) and 0.1% of saponin.
Neuron survival assessment: For each condition 6 wells were assessed, 20 pictures per well were taken using InCell Analyzer™ 1000 (GE Healthcare) with 20× magnification to assess cell bodies (MAP 2 staining). Analysis of picture was done using Developer software (GE Healthcare), the number of neurons per picture was recorded. A mean of neuron number of the 20 pictures was automatically calculated per well, then one data was provided per well (total of 6 raw data were provided per condition).
Neurite network length assessment: For each condition 6 wells were assessed, 20 pictures per well were taken using InCell Analyzer™ 1000 with 20× magnification (20 pictures at X20 representing ˜80% of the total well surface), to assess MAP-2 staining. Analysis of picture was done using Developer software, the total neurite length per picture was recorded. A mean neurite length of the 20 pictures was automatically calculated per well, then one data was provided per well (total of 6 raw data were provided per condition).
The protocol used in these assays is the same as described in example 1. After 13 days of neuron culture, the candidate compounds were solved in DMSO and diluted in culture medium. […]

Structures are written as SMILES.

Turning to `O=C(O)/C=C/c1ccc(O)c(O)c1` [CA, caffeic acid], the “effect on glutamate toxicity” value is on record as “little or no effect”. Also, the neurite network result (glutamate 40 μM, 20 min, 1 μM and 5 μM) is given as “moderate effect”. Besides, the non-active concentration (glutamate 40 μM, 20 min) came to 500 pM.
`COc1cc(/C=C/C(=O)O)ccc1O` [FA, ferulic acid]: the “effect on glutamate toxicity” value is given as “little or no effect”. Besides, the neurite network entry (glutamate 40 μM, 20 min, 10 μM and 100 μM) is reported as “significant protective effect”. Moreover, the non-active concentration (glutamate 40 μM, 20 min) was determined as 10000 pM.
With `C/C=C1\[C@H]2C=C(C)C[C@]1(N)c1ccc(=O)[nH]c1C2` [HA, huperzine A, reference compound], the “effect on glutamate toxicity” value was “little or no effect”. For the same molecule, for the setting “glutamate 40 μM, 20 min”, the lowest active dose is 1 nM and the non-active concentration came out at 10 pM. Also, under “glutamate 40 μM, 20 min, 10 nM”, the neurite network is listed as more than 90% and the neuron survival was 94%.
